Seven substances from patent publication US7795235B2, “Semi-soft c-class immunostimulatory oligonucleotides” (Coley Pharmaceutical GmbH, priority 2004, dated 2010) can be followed below.

Oligonucleotides are written 5' to 3', each unit as a sugar letter and its base; * is a phosphorothioate linkage, no mark a phosphodiester; rarer units and linkages stand in square brackets, end groups in braces. Plain capitals give the bases only. d = 2'-deoxy (DNA)

For data set [1], the system named is human PBMC. As to the kind of experiment: Cytokine secretion (IL-10, TNF-alpha, interferon-gamma, IL-6) from human PBMC. The settings on record: human PBMC (3 donors), 48 hours, ELISA, FIG. 27. The class given is cell-based. The procedure:
Peripheral blood buffy coat preparations from healthy male and female human donors were obtained from the Blood Bank of the University of Düsseldorf (Germany) and from these, PBMC were purified by centrifugation over Ficoll-Hypaque (Sigma). The purified PBMC were either used freshly (for most assays) or were suspended in freezing medium and stored at −70° C. When required, aliquots of these cells were thawed, washed and resuspended in RPMI 1640 culture medium (BioWhittaker, Belgium) supplemented with 5% (v/v) heat inactivated human AB serum (BioWhittaker, Belgium) or 10% (v/v) heat inactivated FCS, 2 mM L-glutamine (BioWhittaker), 100 U/ml penicillin and 100 μg/ml streptomycin (Invitrogen (Karlsruhe, Germany)).
Thawed or fresh PBMC were seeded on 48 well flat-bottom plates, or 96 well round-bottom plates, and incubated with ODN in the concentrations as indicated in a humidified incubator at 37° C. Culture supernatants were collected and if not used immediately, were frozen at −20° C. until required. Amounts of cytokines in the supernatants were assessed using commercially available ELISA Kits (Diaclone, USA) or in-house ELISAs developed using commercially available antibodies (from Becton Dickinson/Pharmingen or PBL). […]

For data set [2], the target named is T1, human TLR9 (Homo sapiens, UniProt Q9NR96).
T1 construct: expressed in transfected cells; host or cells: HEK 293
T1 sequence (Q9NR96 26-1032): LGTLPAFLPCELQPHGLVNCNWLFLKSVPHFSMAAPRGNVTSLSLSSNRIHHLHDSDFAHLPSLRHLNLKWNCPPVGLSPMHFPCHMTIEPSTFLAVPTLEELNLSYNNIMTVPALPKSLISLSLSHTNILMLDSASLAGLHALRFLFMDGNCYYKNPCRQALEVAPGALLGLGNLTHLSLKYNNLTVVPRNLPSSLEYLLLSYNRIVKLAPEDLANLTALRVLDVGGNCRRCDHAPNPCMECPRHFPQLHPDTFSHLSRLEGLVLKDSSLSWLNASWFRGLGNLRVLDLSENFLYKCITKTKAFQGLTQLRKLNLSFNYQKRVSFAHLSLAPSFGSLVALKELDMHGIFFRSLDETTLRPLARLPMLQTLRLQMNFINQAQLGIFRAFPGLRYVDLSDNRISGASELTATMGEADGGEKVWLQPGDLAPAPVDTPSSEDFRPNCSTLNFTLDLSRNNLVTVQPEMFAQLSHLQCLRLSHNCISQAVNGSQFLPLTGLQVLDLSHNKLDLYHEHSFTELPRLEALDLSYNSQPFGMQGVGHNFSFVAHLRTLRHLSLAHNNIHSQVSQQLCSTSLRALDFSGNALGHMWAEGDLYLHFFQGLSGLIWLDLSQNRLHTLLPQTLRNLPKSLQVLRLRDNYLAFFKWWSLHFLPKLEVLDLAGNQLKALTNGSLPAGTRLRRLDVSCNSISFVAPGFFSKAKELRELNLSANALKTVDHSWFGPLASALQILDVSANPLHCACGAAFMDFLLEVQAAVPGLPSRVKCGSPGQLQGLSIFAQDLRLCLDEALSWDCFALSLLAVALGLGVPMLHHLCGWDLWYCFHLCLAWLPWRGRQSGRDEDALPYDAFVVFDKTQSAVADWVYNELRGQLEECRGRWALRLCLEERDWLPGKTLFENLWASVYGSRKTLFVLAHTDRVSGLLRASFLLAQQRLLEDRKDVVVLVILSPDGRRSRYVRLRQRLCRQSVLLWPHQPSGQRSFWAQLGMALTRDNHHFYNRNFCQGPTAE
As to the kind of experiment: Stimulation of TLR9-transfected cells in vitro (luciferase readout). The class given is cell-based. The settings on record: quotient between highest value of all concentrations tested and medium control. The procedure:
Methods: HEK 293 cells transfected with human TLR9 were incubated with SEQ ID NO:1, SEQ ID NO:2, SEQ ID NO:3, SEQ ID NO:4, SEQ ID NO:5, or SEQ ID NO:6 for 16 hours. The signal was determined by a luciferase readout.
The EC50 was calculated using Sigma Plot (SigmaPlot 2002 for Windows version 8.0). The maximal stimulation index (max SI) was calculated as the quotient between the highest value of all concentrations tested for any ODN and the medium control.

Data set [3] relates to guinea pigs. Description: Antigen-induced increase in nasal resistance in guinea pigs. The class given is in vivo, guinea pig. The settings on record: 0.03-1 mg/kg intranasal, over 40 minutes after challenge, FIG. 2. As to the method: Guinea pigs (male, Hartley) were sensitized with antigen (ovalbumin, 5 mg both intraperitoneal and subcutaneous) on study day 0. A boost sensitization (5 mg, intraperitoneal) was given on study day 4. Guinea pigs were antigen challenged by exposure to intranasally-administered antigen twice each week for two consecutive weeks. The first challenge was on study day 14. SEQ ID NO:7 (lot number AQE-03J-001-M, 0.03-1 mg/kg in […] saline) was administered intranasally once each week, two days before the first antigen challenge of the week. With the exception of the final challenge on study day 24, antigen challenge was with ovalbumin (1.5 mg/kg in 150 μl/kg saline). Animals were pretreated with mepyramine (10 mg/kg, intraperitoneal) 30 minutes before challenge to protect against histamine-induced anaphylaxis. On study day 24, guinea pigs were anesthetized to allow measurement of nasal resistance using a Buxco respiratory mechanics system and software. […] Nasal resistance was measured for 40 minutes after challenge.
Methods: To investigate the effects of the CpG oligodeoxynucleotide SEQ ID NO:7 against antigen induced increases in nasal resistance in the guinea pigs guinea pigs were sensitized with antigen, then antigen-challenged nasally. Nasal resistance was measured for 40 minutes after challenge.

Data set [4] deals with BALB/c mice. As to the kind of experiment: Mouse model of allergic rhinitis (sneezing, nasal rubbing). The class given is in vivo. The settings on record: intranasal, 10 minute period after antigen challenge, FIG. 3. As to the method:
Mice (male BALB/c) were sensitized on study days 0 and 7 with antigen (ovalbumin, 100 μg, i.p.) with aluminum hydroxide adjuvant (Pierce Alum i.p.). Mice were antigen challenged daily by exposure to intranasally-administered antigen (1 mg in 10 μl saline). The first challenge was on study day 14. SEQ ID NO:7 was administered intranasally twice. The first dose was given 2 days before the first antigen challenge. The second dose was given 7 days later. Alternatively, budesonide (an anti-inflammatory, synthetic corticosteroid) was administered intranasally daily. The first dose was given 2 days before the first antigen challenge. On each day, the budesonide dose was administered intranasally 4 hours before intranasal antigen challenge. Endpoints were measured on study day 26 (i.e. 7 days after the second dose of SEQ ID NO: 7. Nasal tissues were taken for histopathological assessment of inflammation. Separate mice received a final antigen challenge and incidences of sneezing and nasal rubbing were counted for a 10 minute period after challenge.
Methods: BALB/c mice were used to study the effects of SEQ ID NO:7 on symptoms of allergic rhinitis. […] Separate mice received a final antigen challenge and incidences of sneezing and nasal rubbing were counted for a 10 minute period after challenge.

Data set [5] relates to BALB/c mice. As to the kind of experiment: Antigen-induced IgE and IgG2a production in the mouse. The settings on record: i.p. 1-1000 μg/kg, serum study day 18, FIG. 19. The data set is classed as in vivo. As to the method: Methods: Mice (male BALB/c) were sensitized on study days 0 and 7 with antigen (ovalbumin, 10 μg, i.p.) and aluminum hydroxide adjuvant Pierce Alum, i.p.). Mice received SEQ ID NO:2 or SEQ ID NO:7 on study days −2, 0, 5 and 7 (i.e. two days before each sensitization and on the day of sensitization). Mice were bled by cardiac puncture on study day 18. Serum was collected by centrifugation and assayed by ELISA for ovalbumin-specific IgE and IgG2a.

Data set [6] has as its system guinea pigs. As to the kind of experiment: Guinea pig AHR protocol (airway resistance and lung compliance). The data set is classed as in vivo. The settings on record: guinea pigs, 10, 30, 100 or 300 μl/kg, i.t. The procedure: Male guinea pigs were sensitized on study days 0 and 4 with antigen (ovalbumin, 0.5 ml, 1% OVA i.p./s.c.) with aluminum hydroxide adjuvant. Guinea pigs were antigen challenged by exposure to inhaled ovalbumin aerosol, twice each week for two consecutive weeks. The first challenge was on study day 13. CpG ODN or vehicle (saline, 20 μl) were administered intranasally once each week, two days before the first antigen challenge of the week. Airways hyperreactivity was assessed 24 hours after the last antigen challenge by measuring bronchoconstriction (increase in airway resistance) to intravenous methacholine. For each animal, a dose-response curve to methacholine was obtained, and airway reactivity was quantified as the area under the curve.
Method: Guinea pigs were sensitized as described in Example 10. The first challenge was on study day 13. Guinea pigs were given intranasally either carrier (saline), OVA alone, of concentrations of SEQ ID NO:7 of 10 μl/kg, 30 μl/kg, 100 μl/kg, or 300 μl/kg, i.t.
Method: Guinea pigs were sensitized as described in Example 10. The first challenge was on study day 13. Guinea pigs were given intranasally either carrier (saline), OVA alone, of concentrations of SEQ ID NO:2 of 10 μl/kg, 30 μl/kg, 100 μl/kg, or 300 μl/kg, i.t.

For the substance “2 (T*C_G*T*C_G*T*C_G*T*T*C_G*G*C*G*C_G*C*G*C*C*G; as printed in the source, key not given here) [compound 2]”, the “induction of IL-10” value in data set [1] is listed as “dramatically higher induction”.
As for “T*C_G*T*C_G*A*C_G*A*T*C_G*G*C*G*C_G*C*G*C*C*G (DNA TCGTCGACGATCGGCGCGCGCCG; DNA, backbone and methylation of C not given here; Stabilized (*) and phosphodiester or phosphodiester-like (_) linkages) [SEQ ID NO: 4]”, the “max SI (maximal stimulation index)” value in data set [2] worked out at 14.
With “T*C_G*T*C_G*A*C_G*T*T*C_G*G*C*G*C_G*C*G*C*C*G (DNA dT*dCdG*dT*dCdG*dA*dCdG*dT*dT*dCdG*dG*dC*dG*dCdG*dC*dG*dC*dC*dG) [SEQ ID NO: 1, Semi-soft class C CpG ODN]”, the “max SI (maximal stimulation index)” value in data set [2] is given as 22. In addition, the “induction of IL-10” value in data set [1] was “dramatically higher induction”.
Turning to “T*C_G*T*C_G*T*T*C_G*G*C*G*C*G*C*C*G (DNA TCGTCGTTCGGCGCGCCG; DNA, backbone and methylation of C not given here; Stabilized (*) and phosphodiester or phosphodiester-like (_) linkages) [SEQ ID NO: 3, Semi-soft class C CpG ODN]”, the “max SI (maximal stimulation index)” value in data set [2] amounted to 16.
With “T*C_G*T*C_G*T*T*T*T*G*A*C_G*T*T*T*T*G*T*C_G*T*T (DNA dT*dCdG*dT*dCdG*dT*dT*dT*dT*dG*dA*dCdG*dT*dT*dT*dT*dG*dT*dCdG*dT*dT) [SEQ ID NO: 7, Semi-soft class B CpG ODN included for comparison, reference compound]”, in data set [3], the “antigen-induced increase in nasal resistance” value was “significantly suppressed”. Further, in data set [4], the “incidence of nasal rubbing” value was “suppressed” and the incidence of sneezing result is “suppressed”. In addition, in data set [5], the “production of antigen (ovalbumin)-specific IgE” value is “suppressed” and the “production of antigen (ovalbumin)-specific IgG2a” value is recorded as “potentiated”. Besides, the “AUC-resistance (airway reactivity, area under the dose-response curve)” value in data set [6] is “dose-dependent reduction”.
As for “T*T*C_G*T*C_G*T*T*T*T_G*T*C_G*T*T (DNA TTCGTCGTTTTGTCGTT; DNA, backbone and methylation of C not given here; Stabilized (*) and phosphodiester or phosphodiester-like (_) linkages) [SEQ ID NO: 5]”, the “max SI (maximal stimulation index)” value in data set [2] is recorded as 13.
Still for that read-out and setting: the figure for “T*T*T*C_G*T*C_G*T*T*T*C_G*T*C_G*T*T (DNA TTTCGTCGTTTCGTCGTT; DNA, backbone and methylation of C not given here; Stabilized (*) and phosphodiester or phosphodiester-like (_) linkages) [SEQ ID NO: 6]” is 11.
